Read-outs that look alike come from different tables or passages of the source. One block for each molecule: values may come before it.
Legend:
Eg5 = conditions: experimental binding free energy, ref Schrödinger FEP+ benchmark; cited from earlier work
SHP2^WT (1–593) = molecular target: T1, SHP2^WT (1–593) (Homo sapiens, UniProt Q06124); assay: SHP-2 prompt fluorescence phosphatase assay (DiFMUP), SHP2^WT; format: biochemical; design: ΔG experiment: unit not given here; conditions: for ΔGexp: converted from IC50 with ΔGexp ≈ kBTlog IC50; for pIC50: from experimental IC50; for ΔG experiment: experimental binding free energy converted from IC50
T1 construct: made in house; host or cells: E. coli BL21 Star (DE3), pET30 vector
T1 sequence (Q06124 1-593): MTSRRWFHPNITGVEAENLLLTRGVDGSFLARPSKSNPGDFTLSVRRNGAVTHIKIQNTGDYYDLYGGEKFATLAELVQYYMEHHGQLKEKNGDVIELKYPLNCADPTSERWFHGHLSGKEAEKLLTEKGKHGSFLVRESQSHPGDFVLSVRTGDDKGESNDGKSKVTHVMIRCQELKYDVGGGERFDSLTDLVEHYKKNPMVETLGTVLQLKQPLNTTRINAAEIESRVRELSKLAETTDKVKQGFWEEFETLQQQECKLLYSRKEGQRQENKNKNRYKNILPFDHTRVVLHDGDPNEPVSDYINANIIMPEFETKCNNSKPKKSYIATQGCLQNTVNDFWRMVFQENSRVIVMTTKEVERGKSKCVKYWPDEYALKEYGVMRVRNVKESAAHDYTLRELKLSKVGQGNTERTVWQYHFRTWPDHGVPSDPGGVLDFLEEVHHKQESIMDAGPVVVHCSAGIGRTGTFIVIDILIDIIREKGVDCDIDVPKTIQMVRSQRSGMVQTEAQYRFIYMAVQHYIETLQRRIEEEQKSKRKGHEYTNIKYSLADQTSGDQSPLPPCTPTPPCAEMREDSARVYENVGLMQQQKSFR
Description: Briefly, the constructs were transformed into BL21 Star^TM (DE3) cells and cultured at 37 °C for 3~4 h. Subsequently, the cells with high expression of SHP2 protein were harvested after being induced by IPTG and grown overnight at 18 °C. Cell pellets were resuspended in lysis buffer (25 mM imidazole, 50 mM Tris−HCl, 500 mM NaCl, 2.5 mM MgCl2, 1 mM tris(2-carboxyethyl)phosphine (TCEP), 1 μg/mL DNase1, and complete EDTA-free protease inhibitor) and lysed using Low Temperature Ultrahigh Pressure Continuous Flow Cell Disrupter (JNBIO), followed by ultracentrifugation. The supernatant was collected. Then, the SHP2 was purified from the collected supernatant by using HisTrap HP chelation column, TEV protease, and HiTrap Q FastFlow column.
Then, the mixture was then incubated at 25 °C for 60 min. To initiate the reaction, the surrogate substrate DiFMUP (Invitrogen, cat. no. D6567, Shuzhou, China, 200 μM) was added and incubated at 25 °C for another 30 min. […] Fluorescence signal was detected using a microplate reader (Bio-Tek, Shanghai, China, Synergy2) at Ex/Em = 340/450 nm. Using control-based normalization, normalized IC50 regression curves were fitted to inhibitor dose response curves.

THR-β = assay: Experimental THR-β activity of agonists taken from Hu et al.; format: biochemical; conditions: Table S4, converted from the experimental value
Description: In the initial phase of our investigation, we conducted a retrospective evaluation of FMOScore’s performance concerning thyroid hormone receptor β (THR-β) agonists, using a set of 18 compounds taken from the work of Hu et al. [65]

c-Met [1] = system: c-Met; design: method as in earlier work; conditions: Schrödinger FEP+ benchmark; cited from earlier work
c-Met [2] = system: c-Met; design: method as in earlier work; conditions: FEP+ predicted ΔG from the benchmark; cited from earlier work
SYK [3] = conditions: experimental binding free energy, ref Schrödinger FEP+ benchmark; cited from earlier work
SYK [4] = system: SYK; design: method as in Schrödinger FEP+ benchmark; conditions: FEP+ predicted binding free energy, ref Schrödinger FEP+ benchmark; cited from earlier work
[5] = SHP2^WT, DiFMUP substrate, averages of three independent experiments, read-out: SHP-2 IC50
[6] = SHP-2_case sheet, designed SHP-2 inhibitors, read-out: IC50uM
[7] = SHP-2_case sheet, same IC50 restated in another unit, read-out: IC50nM

Compound: CC(C)(C)c1ccc2c(c1)[C@H]1OCCC[C@H]1[C@H](c1ccccc1)N2 [CHEMBL1089056]
Exp. ΔG (Eg5): -9.44 kcal/mol

IC50 (SHP2^WT (1–593); [5]): 5.17 ± 1.08 µM | ΔGexp (SHP2^WT (1–593)): -7.207 kcal/mol
Compound: Nc1cc(NC2CCNC2)cnc1-c1cccc(Cl)c1Cl (stereo not drawn) [Compound 3, 2-(2,3-dichlorophenyl)-N5-(pyrrolidin-3-yl) pyridine-3,5-diamine]
ΔGexp (THR-β): -8.435 kcal/mol | Exp. ΔG (c-Met [1]): -7.46 kcal/mol | FEP (c-Met [2]): -5.97 kcal/mol | Exp. ΔG (SYK [3]): -8.64 kcal/mol | FEP (SYK [4]): -6.76 kcal/mol

Compound: NCCN(C[C@H]1CC[C@@H]2[C@H](O1)c1cc(C(F)(F)F)ccc1N[C@H]2c1ccccc1)c1ccccc1 [CHEMBL1093087]
Exp. ΔG (Eg5): -10.53 kcal/mol

IC50 (SHP2^WT (1–593); [6]): 15.6 µM | pIC50 (SHP2^WT (1–593); SHP-2_case sheet): 4.8066 | IC50 (SHP2^WT (1–593); [7]): 15.6 µM | ΔG experiment (SHP2^WT (1–593)): -6.554
Compound: Nc1cc(NCC2CCCNC2)cnc1-c1cccc(Cl)c1Cl (stereo not drawn) [A-S2]

IC50 (SHP2^WT (1–593); [6]): 1.49 µM | pIC50 (SHP2^WT (1–593); SHP-2_case sheet): 5.826 | IC50 (SHP2^WT (1–593); [7]): 1.49 µM | ΔG experiment (SHP2^WT (1–593)): -7.943
Compound: CC1(N)CCN(c2cnc(-c3cccc(Cl)c3Cl)c(N)c2)CC1 [A-S1]

Compound: CNC[C@H]1CC[C@@H]2[C@H](O1)c1cc(C(F)(F)F)ccc1N[C@H]2c1ccc(F)cc1 [CHEMBL1086409]
Exp. ΔG (Eg5): -9.87 kcal/mol

Compound: CN(C)CCOC(=O)NC[C@H]1CC[C@@H]2[C@H](O1)c1cc(C(F)(F)F)ccc1N[C@H]2c1ccccc1 [CHEMBL1084676]
Exp. ΔG (Eg5): -10.71 kcal/mol

Compound: CC1(N)CCN(c2cnc(Sc3cccc(Cl)c3Cl)c(N)c2)CC1 [A-S7]
IC50 (SHP2^WT (1–593); [6]): 11.2 µM | pIC50 (SHP2^WT (1–593); SHP-2_case sheet): 4.949 | IC50 (SHP2^WT (1–593); [7]): 11.2 µM | ΔG experiment (SHP2^WT (1–593)): -6.748

Compound: CC(=O)NCCNC[C@H]1CC[C@@H]2[C@H](O1)c1cc(Br)cc(F)c1N[C@H]2c1ccccc1 [CHEMBL1082249]
Exp. ΔG (Eg5): -11.22 kcal/mol

Compound: NC[C@H]1CC[C@@H]2[C@H](O1)c1cc(C(F)(F)F)ccc1N[C@H]2c1ccccc1 [CHEMBL1085666]
Exp. ΔG (Eg5): -10.5 kcal/mol

Compound: CC(C)(C)c1ccc2c(c1)[C@H]1OCCC[C@H]1[C@H](c1ccc(O)c(F)c1)N2 [CHEMBL1078774]
Exp. ΔG (Eg5): -10.6 kcal/mol

Compound: CNC[C@H]1CC[C@@H]2[C@H](O1)c1cc(Br)cc(F)c1N[C@H]2c1ccccc1 [CHEMBL1082248]
Exp. ΔG (Eg5): -11.63 kcal/mol

IC50 (SHP2^WT (1–593); [6]): 2.29 µM | pIC50 (SHP2^WT (1–593); SHP-2_case sheet): 5.64 | IC50 (SHP2^WT (1–593); [7]): 2.29 µM | ΔG experiment (SHP2^WT (1–593)): -7.69
Compound: Nc1cc(N2CCC3(CCCC3N)CC2)cnc1Sc1cccc(Cl)c1Cl (stereo not drawn) [A-S8]

Compound: CN(C[C@H]1CC[C@@H]2[C@H](O1)c1cc(C(F)(F)F)ccc1N[C@H]2c1ccccc1)S(=O)(=O)CCCN [CHEMBL1084678]
Exp. ΔG (Eg5): -11.13 kcal/mol

Compound: CNCCS(=O)(=O)NC[C@H]1CC[C@@H]2[C@H](O1)c1cc(C(F)(F)F)ccc1N[C@H]2c1ccccc1 [CHEMBL1084677]
Exp. ΔG (Eg5): -11.46 kcal/mol

Compound: CC(C)(C)c1ccc2c(c1)[C@H]1OCCC[C@H]1[C@H](c1cccs1)N2 [CHEMBL1078998]
Exp. ΔG (Eg5): -10.37 kcal/mol

Compound: CN(C)CCCC(=O)NC[C@H]1CC[C@@H]2[C@H](O1)c1cc(Br)cc(F)c1N[C@H]2c1ccccc1 [CHEMBL1085692]
Exp. ΔG (Eg5): -11.32 kcal/mol

IC50 (SHP2^WT (1–593); [6]): 23.5 µM | pIC50 (SHP2^WT (1–593); SHP-2_case sheet): 4.629 | IC50 (SHP2^WT (1–593); [7]): 23.5 µM | ΔG experiment (SHP2^WT (1–593)): -6.312
Compound: Nc1cc(NC2CCNCC2)cnc1-c1cccc(Cl)c1Cl [A-S4]

IC50 (SHP2^WT (1–593); [5]): 15.1 ± 0.8 µM | ΔGexp (SHP2^WT (1–593)): -6.573 kcal/mol
Compound: CC1(N)CCN(c2cnc(-c3cccc(F)c3Cl)c(N)c2)CC1 [Compound 5, 5-(4-amino-4-methylpiperidin-1-yl)-2-(2-chloro-3-fluorophenyl) pyridin-3-amine]
ΔGexp (THR-β): -5.453 kcal/mol | Exp. ΔG (c-Met [1]): -9.14 kcal/mol | FEP (c-Met [2]): -8.31 kcal/mol

Compound: CC(C)(C)c1ccc2c(c1)[C@H]1OCCC[C@H]1[C@H](c1ccc(O)cc1)N2 [CHEMBL1078691]
Exp. ΔG (Eg5): -10.19 kcal/mol

— paper PMC10779950, “Binding Free Energy Calculation Based on the Fragment Molecular Orbital Method and Its Application in Designing Novel SHP-2 Allosteric Inhibitors” (International Journal of Molecular Sciences, 2024)
